# Measurements as given in US20260223850A1, “SUBSTITUTED PYRROLIDONE COMPOUND, PREPARATION METHOD THEREFOR, COMPOSITION AND APPLICATION THEREOF” (QINGDAO KINGAGROOT CHEMICAL COMPOUND CO., LTD., priority 2023, published 2026).
# Legend:
# Type in all cases: in vivo
# Conditions in all cases: 120 g a.i./ha, seedling stage sealing, 15 days, fresh weight control rate
# Huaidao (rice cultivar) = experiment: Seedling stage sealing experiment for water-seeding (crop safety)
# Text: (§1) The activity level criteria for plant damage (i.e., growth control rate) are as follows: • Level 9: completely dead; • Level 8: growth control rate greater than or equal to 90% and less than 100%; • Level 7: growth control rate greater than or equal to 80% and less than 90%; • Level 6: growth control rate greater than or equal to 70% and less than 80%; • Level 5: growth control rate greater than or equal to 50% and less than 70%; • Level 4: growth control rate greater than or equal to 30% and less than 50%; • Level 3: growth control rate greater than or equal to 20% and less than 30%; • Level 2: growth control rate greater than or equal to 10% and less than 20%; • Level 1: growth control rate less than 10%; • Level 0: no effect.
# (§2) The above growth control rates are fresh weight control rates.
# (§3) Echinochloa phyllopogon, Digitaria sanguinalis, Huaidao (rice cultivar), etc. were broadcasted on the surface of nutrition bowls filled with soil and fully covered by soil. The foregoing well-prepared nutrition bowls were then placed in a cultivation box with water filled to a suitable height to keep the soil in the nutrition bowls moist. A test compound of the present invention was individually dissolved with acetone, then diluted into solution of a certain concentration using a certain amount of water, and sprayed using a spray tower. The plants were placed on a greenhouse seedbed and cultured for 15 days, and the experimental results were then collected. The compound was applied at 120, 60, 30 and 15 g a.i./ha in triplicate, and the results were averaged.
# Echinochloa crusgalli = experiment: Seedling stage sealing experiment for water-seeding
# Text: as §1, §2, §3
# Echinochloa phyllopogon = experiment: as above
# Text: as §1, §2, §3
Structure (SMILES),Huaidao (rice cultivar) plant damage level (Huaidao (rice cultivar)),Echinochloa crusgalli activity level (growth control rate) (Echinochloa crusgalli),Echinochloa phyllopogon activity level (growth control rate) (Echinochloa phyllopogon)
CN1C[C@H](c2cccc(Oc3ccc(F)cn3)c2)[C@@H](C(=O)Nc2cnn(C)c2Cl)C1=O [52′],0,9,–
CN1C[C@H](c2cc(F)cc(C(F)(F)F)c2)[C@@H](C(=O)Nc2cnn(C)c2Cl)C1=O [67′],1 (Level 1: growth control rate less than 10%),9,8 (Level 8: growth control rate greater than or equal to 90% and less than 100%)
Cc1cc([C@H]2CN(C)C(=O)[C@@H]2C(=O)Nc2cnn(C)c2Cl)cc(C(F)(F)F)c1 [69′],1 (Level 1: growth control rate less than 10%),9,9
CC(C)n1ncc(NC(=O)[C@H]2C(=O)N(C)C[C@@H]2c2cccc(C(F)(F)F)c2)c1Cl [97′],0,9,9
CN1C[C@H](c2cccc(C(F)(F)F)c2)[C@@H](C(=O)Nc2cnn(C)c2F)C1=O [119′],0,9,9
COCn1ncc(NC(=O)[C@H]2C(=O)N(C)C[C@@H]2c2cccc(C)c2)c1Cl [127′],0,9,8 (Level 8: growth control rate greater than or equal to 90% and less than 100%)
C#CCn1ncc(NC(=O)[C@H]2C(=O)N(C)C[C@@H]2c2cccc(C)c2)c1Cl [132′],0,7 (Level 7: growth control rate greater than or equal to 80% and less than 90%),7 (Level 7: growth control rate greater than or equal to 80% and less than 90%)
Cc1cccc([C@H]2CN(C)C(=O)[C@@H]2C(=O)Nc2cnn(C)c2C)c1 [134′],0,7 (Level 7: growth control rate greater than or equal to 80% and less than 90%),7 (Level 7: growth control rate greater than or equal to 80% and less than 90%)
Cc1cccc([C@H]2CN(C)C(=O)[C@@H]2C(=O)Nc2cnn(C)c2C(F)(F)F)c1 [136′],0,9,9
C=Cc1c(NC(=O)[C@H]2C(=O)N(C)C[C@@H]2c2cccc(C)c2)cnn1C [137′],0,6 (Level 6: growth control rate greater than or equal to 70% and less than 80%),5 (Level 5: growth control rate greater than or equal to 50% and less than 70%)
Cc1cccc([C@H]2CN(C)C(=O)[C@@H]2C(=O)Nc2cnn(C(C)C)c2C2CC2)c1 [138′],0,7 (Level 7: growth control rate greater than or equal to 80% and less than 90%),6 (Level 6: growth control rate greater than or equal to 70% and less than 80%)
C=C(C)c1cccc([C@H]2CN(C)C(=O)[C@@H]2C(=O)Nc2cnn(C)c2Cl)c1 [150′],0,6 (Level 6: growth control rate greater than or equal to 70% and less than 80%),–
CN1C[C@H](c2cccc(C3CC3)c2)[C@@H](C(=O)Nc2cnn(C)c2Cl)C1=O [151′],0,–,9
CN1C[C@H](c2cccc(C(F)(F)F)c2)[C@@H](C(=O)Nc2cnn(C)c2)C1=O [156′],0,9,7 (Level 7: growth control rate greater than or equal to 80% and less than 90%)
C#CCn1ncc(NC(=O)[C@H]2C(=O)N(C)C[C@@H]2c2cccc(C(F)(F)F)c2)c1Cl [163′],0,9,8 (Level 8: growth control rate greater than or equal to 90% and less than 100%)
CN1C[C@H](c2cccc(C(F)(F)F)c2)[C@@H](C(=O)Nc2cnn(C)c2C#N)C1=O [187′],0,9,9
Cc1cc(C)cc([C@H]2CN(C)C(=O)[C@@H]2C(=O)Nc2cnn(C(C)(C)C)c2Cl)c1 [267′],0,6 (Level 6: growth control rate greater than or equal to 70% and less than 80%),–
Cc1cc(C)cc([C@H]2CN(C)C(=O)[C@@H]2C(=O)Nc2cnn(C)c2)c1 [274′],0,7 (Level 7: growth control rate greater than or equal to 80% and less than 90%),–
